Test results from BindingDB's records for PubMed 7509389 (Fujisawa Pharmaceutical, 1994).

Target: T1, Gastrin/cholecystokinin type B receptor (Rattus norvegicus, UniProt P30553)
T1 sequence (P30553 whole entry): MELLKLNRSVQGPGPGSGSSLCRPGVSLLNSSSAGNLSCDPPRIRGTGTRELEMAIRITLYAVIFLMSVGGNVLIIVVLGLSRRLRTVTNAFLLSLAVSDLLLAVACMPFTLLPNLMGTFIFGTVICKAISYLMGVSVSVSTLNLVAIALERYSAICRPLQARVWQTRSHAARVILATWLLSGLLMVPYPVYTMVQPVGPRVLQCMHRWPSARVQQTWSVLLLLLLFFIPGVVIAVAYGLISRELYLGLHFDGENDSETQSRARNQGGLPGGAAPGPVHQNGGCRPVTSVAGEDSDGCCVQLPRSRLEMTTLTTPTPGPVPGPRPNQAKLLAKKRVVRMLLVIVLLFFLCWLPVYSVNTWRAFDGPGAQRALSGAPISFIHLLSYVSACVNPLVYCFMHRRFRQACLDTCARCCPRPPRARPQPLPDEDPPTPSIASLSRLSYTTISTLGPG

CCCCCN(CCCOC)C(=O)C(CCC(=O)O)NC(=O)c1ccc(Cl)c(Cl)c1 (stereo unspecified) [4-(3,4-dichlorobenzamido)-5-((3-methoxypropyl)(pentyl)amino)-5-oxopentanoic acid]
Ki: 330 nM
